Earlier results on four compounds are cited in US8614057B2, “Methods for collecting and detecting oligonucleotides” (The Invention Science Fund I, LLC, priority 2008, dated 2013).

Data set [1] addresses T1, RNAse A (Bos taurus, UniProt P61823).
T1 sequence (P61823 27-150): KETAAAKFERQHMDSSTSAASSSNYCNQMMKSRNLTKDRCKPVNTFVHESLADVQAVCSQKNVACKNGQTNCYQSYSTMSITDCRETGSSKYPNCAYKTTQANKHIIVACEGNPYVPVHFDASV
The conditions noted are these: RNAse A catalysis.

In data set [2] the target is RNase-2 (eosinophil derived neurotoxin) (Homo sapiens, UniProt P10153).
The target of data set [3] is T1, RNAse A.
The next data set has as its target T2, RNase-4 (Homo sapiens, UniProt P34096).
T2 sequence (P34096 29-147): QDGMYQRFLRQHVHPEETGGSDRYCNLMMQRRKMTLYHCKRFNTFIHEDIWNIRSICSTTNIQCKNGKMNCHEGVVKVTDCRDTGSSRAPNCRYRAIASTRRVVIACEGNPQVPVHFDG

For data set [4] the following is noted: in humans.
For data set [5] the following is noted: subcutaneous; 40, 8, and 1.6 μg injections once daily over 35 days.

pKi: −log10 of the molar value. Read-outs that look alike come from different tables or passages of the source.

Chain of RNase-2 (eosinophil derived neurotoxin) (P10153 28-161): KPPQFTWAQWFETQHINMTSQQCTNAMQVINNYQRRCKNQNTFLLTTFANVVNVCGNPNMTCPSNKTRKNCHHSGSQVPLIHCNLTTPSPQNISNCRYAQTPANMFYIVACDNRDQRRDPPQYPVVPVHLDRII

In general, pKi refers to the Ki on a negative log10 scale, so that one unit is a factor of ten. oligo(vinylsulfonic acid): the pKi on RNAse A [1] (0 mM sodium chloride end of the range 0 to 100 mM, read-out: inhibition constant (Ki), lower end of reported range) is ~11.00; at RNAse A [1] (100 mM sodium chloride end of the range 0 to 100 mM, read-out: inhibition constant (Ki), upper end of reported range) it was ~6.92.

For `Nc1ncnc2c1ncn2C1OC(COP(=O)(O)OP(=O)(O)OC2CC(n3ccc(=O)[nH]c3=O)OC2COP(=O)(O)O)C(OP(=O)(O)O)C1O` (centres unmarked) [pdUppAp, 5′-phosphor-2′-deoxyuridine 3′-pyrophosphate, P′-P5-ester with adenosine 3′-phosphate], the “inhibition of RNase-2 activity” value in data set [2] is “inhibits the activity”. For the same compound, the pKi on RNAse A [3] (pH 5.9) was 7.57; on RNAse A [3] (pH 7.0) it was 6.62. For the same compound, the “inhibition of RNase-4 activity” value on RNase-4 is “inhibits the activity”.

One may read the half-life as the time needed for the level to fall by half in the phase considered. For Etanercept, the half-life in data set [4] was 70 h.

Turning to `Nc1ccc(N=Nc2ccc(-c3ccc(O)cc3)cc2)c2ccc(S(=O)(=O)O)cc12` [8-amino-5-(4′-hydroxylbiphenyl-4-ylazo)naphthalene-2-sulfonate], the “toxicity to the animals” value in data set [5] was “without overt toxicity”.
